Assay results as given in the supplement of paper PMC10307832.

Columns and labels:
Assay in all cases: relative viability (nuclei count vs DMSO), 5 days (fraction); higher = more cells survive
Gemcitabine + Bortezomib = compound: Nc1ccn([C@@H]2O[C@H](CO)[C@@H](O)C2(F)F)c(=O)n1 [Gemcitabine] + CC(C)C[C@H](NC(=O)[C@H](Cc1ccccc1)NC(=O)c1cnccn1)B(O)O [Bortezomib] (partner 0.002 µM)
Summary of the method: (§1)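 Relative viability is defined as nuclei in treated wells over nuclei in vehicle wells. Duplicate plates were run and medians reported. Lung cancer cell lines in 1536-well plates were dosed by pin tool one day after seeding, with one drug or with a fixed anchor-drug dose plus five library-drug doses (not always all listed) in √10 steps, and nuclei were counted after 5 days.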

Gemcitabine + Pemetrexed = compound: Nc1ccn([C@@H]2O[C@H](CO)[C@@H](O)C2(F)F)c(=O)n1 [Gemcitabine] + Nc1nc2[nH]cc(CCc3ccc(C(=O)N[C@@H](CCC(=O)O)C(=O)O)cc3)c2c(=O)[nH]1 [Pemetrexed] (partner 0.2 µM)
Summary of the method: as §1

Gemcitabine + Olaparib = compound: Nc1ccn([C@@H]2O[C@H](CO)[C@@H](O)C2(F)F)c(=O)n1 [Gemcitabine] + O=C(c1cc(Cc2n[nH]c(=O)c3ccccc23)ccc1F)N1CCN(C(=O)C2CC2)CC1 [Olaparib] (partner 8 µM)
Summary of the method: as §1

Gemcitabine + Alpelisib = compound: Nc1ccn([C@@H]2O[C@H](CO)[C@@H](O)C2(F)F)c(=O)n1 [Gemcitabine] + Cc1nc(NC(=O)N2CCC[C@H]2C(N)=O)sc1-c1ccnc(C(C)(C)C(F)(F)F)c1 [Alpelisib] (partner 2 µM)
Summary of the method: as §1

| Cell Line | relative viability (Gemcitabine + Bortezomib; first compound 0.001 µM) | relative viability (Gemcitabine + Bortezomib; first compound 0.003162 µM) | relative viability (Gemcitabine + Bortezomib; first compound 0.01 µM) | relative viability (Gemcitabine + Bortezomib; first compound 0.03162 µM) | relative viability (Gemcitabine + Bortezomib; first compound 0.1 µM) | relative viability (Gemcitabine + Pemetrexed; first compound 0.001 µM) | relative viability (Gemcitabine + Pemetrexed; first compound 0.003162 µM) | relative viability (Gemcitabine + Pemetrexed; first compound 0.01 µM) | relative viability (Gemcitabine + Pemetrexed; first compound 0.03162 µM) | relative viability (Gemcitabine + Pemetrexed; first compound 0.1 µM) | relative viability (Gemcitabine + Olaparib; first compound 0.001 µM) | relative viability (Gemcitabine + Olaparib; first compound 0.003162 µM) | relative viability (Gemcitabine + Olaparib; first compound 0.01 µM) | relative viability (Gemcitabine + Olaparib; first compound 0.03162 µM) | relative viability (Gemcitabine + Olaparib; first compound 0.1 µM) | relative viability (Gemcitabine + Alpelisib; first compound 0.001 µM) | relative viability (Gemcitabine + Alpelisib; first compound 0.003162 µM) | relative viability (Gemcitabine + Alpelisib; first compound 0.01 µM) | relative viability (Gemcitabine + Alpelisib; first compound 0.03162 µM) | relative viability (Gemcitabine + Alpelisib; first compound 0.1 µM) |
| --- | --- | --- | --- | --- | --- | --- | --- | --- | --- | --- | --- | --- | --- | --- | --- | --- | --- | --- | --- | --- |
| NCI-H2009 | 1.06 | 0.586 | 0.133 | 0.111 | 0.0676 | 1.08 | 0.882 | 0.473 | 0.127 | 0.0868 | 0.717 | 0.436 | 0.191 | 0.102 | 0.0738 | 1.15 | 0.552 | 0.276 | 0.12 | 0.112 |
| NCI-H2023 | 1.12 | 1.11 | 0.241 | 0.104 | 0.0584 | 0.265 | 0.282 | 0.152 | 0.0833 | 0.0801 | 0.505 | 0.414 | 0.236 | 0.161 | 0.0679 | 0.703 | 0.542 | 0.415 | 0.214 | 0.066 |
| NCI-H2085 | 1.02 | 0.964 | 0.897 | 0.682 | 0.405 | 0.94 | 0.882 | 0.827 | 0.772 | 0.406 | 0.756 | 0.786 | 0.699 | 0.597 | 0.426 | 0.892 | 0.959 | 0.765 | 0.57 | 0.429 |
| NCI-H2087 | 0.743 | 0.569 | 0.581 | 0.155 | 0.166 | 0.666 | 0.581 | 0.263 | 0.113 | 0.105 | 0.69 | 0.413 | 0.254 | 0.0942 | 0.0872 | 1.26 | 0.872 | 0.38 | 0.15 | 0.14 |
| NCI-H2126 | 1.05 | 1.1 | 1.04 | 0.985 | 0.67 | 0.628 | 0.742 | 0.628 | 0.577 | 0.3 | 0.888 | 0.933 | 0.867 | 0.562 | 0.262 | 0.749 | 0.705 | 0.728 | 0.504 | 0.255 |
| NCI-H2228 | 0.98 | 1.06 | 0.281 | 0.198 | 0.126 | 0.348 | 0.332 | 0.166 | 0.092 | 0.112 | 0.627 | 0.333 | 0.152 | 0.144 | 0.0825 | 0.74 | 0.534 | 0.144 | 0.123 | 0.134 |
| NCI-H2347 | 0.621 | 0.961 | 0.534 | 0.653 | 0.401 | 0.43 | 0.391 | 0.409 | 0.357 | 0.366 | 0.603 | 0.529 | 0.496 | 0.383 | 0.373 | 1.05 | 0.815 | 0.752 | 0.574 | 0.324 |
| NCI-H2405 | 0.974 | 0.957 | 0.582 | 0.275 | 0.231 | 1 | 0.91 | 0.552 | 0.228 | 0.184 | 0.842 | 0.766 | 0.361 | 0.23 | 0.179 | 0.753 | 0.588 | 0.287 | 0.196 | 0.179 |
| NCI-H3122 | 1.08 | 0.985 | 0.889 | 0.303 | 0.24 | 0.196 | 0.206 | 0.191 | 0.138 | 0.105 | 0.622 | 0.625 | 0.396 | 0.136 | 0.107 | 0.824 | 0.774 | 0.627 | 0.234 | 0.165 |
| PC-3 [JPC-3] | 0.835 | 0.785 | 0.512 | 0.286 | 0.237 | 1.23 | 0.566 | 0.434 | 0.414 | 0.31 | 1.24 | 0.614 | 0.49 | 0.478 | 0.349 | 1.13 | 0.736 | 0.649 | 0.264 | 0.248 |
| PC-14 | 0.867 | 0.507 | 0.42 | 0.0489 | 0.0512 | 0.132 | 0.168 | 0.0563 | 0.0461 | 0.0413 | 0.256 | 0.13 | 0.0358 | 0.0472 | 0.0357 | 1.02 | 0.688 | 0.468 | 0.0826 | 0.0459 |
| RERF-LC-KJ | 1.12 | 1.25 | 0.92 | 0.559 | 0.294 | 0.5 | 0.485 | 0.459 | 0.357 | 0.263 | 1 | 0.87 | 0.804 | 0.389 | 0.293 | 0.853 | 0.849 | 0.856 | 0.496 | 0.228 |
| SK-LU-1 | 1.16 | 0.281 | 0.23 | 0.175 | 0.224 | 1.01 | 0.434 | 0.252 | 0.2 | 0.237 | 0.431 | 0.188 | 0.181 | 0.183 | 0.168 | 0.745 | 0.337 | 0.246 | 0.224 | 0.192 |
| SW 1573 | 1.16 | 0.853 | 0.538 | 0.086 | 0.0926 | 0.876 | 0.732 | 0.0969 | 0.0574 | 0.0459 | 0.413 | 0.295 | 0.0949 | 0.102 | 0.0546 | 0.749 | 0.592 | 0.295 | 0.0967 | 0.0846 |
| UMC-11 | 0.979 | 0.693 | 0.677 | 0.669 | 0.158 | 0.814 | 0.769 | 0.747 | 0.676 | 0.403 | 0.41 | 0.496 | 0.356 | 0.38 | 0.247 | 1.15 | 0.931 | 0.885 | 0.792 | 0.239 |
